Assay results: the NIST ThermoML archive (doi:10.1021/je0604378)

Conditions: Liquid; for speed of sound: Pulse-echo method; for mass density: 101.33 kPa

CCCCCCCO [heptan-1-ol]
Conditions	speed of sound [m/s]
292.76 K, 75990 kPa	1654.2
292.77 K, 30390 kPa	1487.3
292.77 K, 45590 kPa	1546.9
292.77 K, 60790 kPa	1602.6
292.77 K, 91180 kPa	1702
292.77 K, 101320 kPa	1732.7
292.78 K, 15200 kPa	1421.7
292.89 K, 100 kPa	1345.4
298.06 K, 15200 kPa	1404.9
298.06 K, 30390 kPa	1471.8
298.06 K, 45590 kPa	1532.3
298.06 K, 60790 kPa	1588.2
298.06 K, 75990 kPa	1640.4
298.06 K, 91180 kPa	1688.9
298.06 K, 101320 kPa	1719.6
298.17 K, 100 kPa	1327.2
302.94 K, 15200 kPa	1389.5
302.94 K, 30390 kPa	1457.3
302.94 K, 45590 kPa	1518.7
302.94 K, 60790 kPa	1575.3
302.94 K, 91180 kPa	1677
302.94 K, 101320 kPa	1708
302.95 K, 75990 kPa	1628
303.14 K, 100 kPa	1310.2
307.93 K, 60790 kPa	1561.9
307.93 K, 91180 kPa	1664.8
307.94 K, 15200 kPa	1374
307.94 K, 30390 kPa	1442.8
307.94 K, 45590 kPa	1505
307.94 K, 75990 kPa	1615.5
307.94 K, 101320 kPa	1696
308.12 K, 100 kPa	1293.2
312.9 K, 30390 kPa	1428.7
312.9 K, 45590 kPa	1491.6
312.9 K, 60790 kPa	1549.1
312.9 K, 75990 kPa	1603.1
312.9 K, 91180 kPa	1653
312.91 K, 15200 kPa	1358.9
312.91 K, 101320 kPa	1684.7
313.09 K, 100 kPa	1276.3
318.29 K, 30390 kPa	1413.6
318.29 K, 45590 kPa	1477.5
318.29 K, 60790 kPa	1535.5
318.29 K, 75990 kPa	1590
318.29 K, 91180 kPa	1640.6
318.29 K, 101320 kPa	1672.4
318.3 K, 15200 kPa	1342.8
318.37 K, 100 kPa	1258.6

Conditions	mass density [kg/m3]
293.15 K	822.297
298.15 K	818.796
303.15 K	815.269
308.15 K	811.724
313.15 K	808.158
318.15 K	804.546

CCCCCCCCO [octan-1-ol]
Conditions	speed of sound [m/s]
292.77 K, 15230 kPa	1440.3
292.77 K, 30430 kPa	1505.2
292.77 K, 76010 kPa	1670.1
292.78 K, 60800 kPa	1619.3
292.79 K, 91200 kPa	1717.8
292.83 K, 45610 kPa	1564.1
292.83 K, 96120 kPa	1733
292.92 K, 100 kPa	1365.2
298.07 K, 76040 kPa	1656.5
298.07 K, 91190 kPa	1703.9
298.07 K, 97840 kPa	1724.3
298.09 K, 45610 kPa	1548.8
298.09 K, 60840 kPa	1604.6
298.13 K, 30410 kPa	1488.8
298.19 K, 15200 kPa	1422.6
298.2 K, 100 kPa	1347.1
303.15 K, 76000 kPa	1642.8
303.16 K, 91200 kPa	1691.2
303.18 K, 100 kPa	1330.2
303.2 K, 101340 kPa	1722.3
303.26 K, 60820 kPa	1590.2
303.27 K, 15200 kPa	1406.2
303.27 K, 45600 kPa	1533.9
303.28 K, 30410 kPa	1473.3
308.12 K, 91200 kPa	1679.2
308.12 K, 101320 kPa	1710.3
308.16 K, 100 kPa	1313.3
308.16 K, 91210 kPa	1679.1
308.17 K, 30400 kPa	1458.8
308.17 K, 76020 kPa	1630
308.18 K, 45600 kPa	1520.3
308.18 K, 60790 kPa	1576.8
308.19 K, 15210 kPa	1390.7
313.15 K, 100 kPa	1296.5
313.22 K, 91200 kPa	1666.8
313.22 K, 101340 kPa	1697.8
313.23 K, 76000 kPa	1616.6
313.26 K, 15200 kPa	1375.1
313.26 K, 30390 kPa	1443.9
313.26 K, 45590 kPa	1506.1
313.28 K, 60790 kPa	1563.5
318.33 K, 100 kPa	1279.2
318.82 K, 45600 kPa	1491
318.82 K, 60790 kPa	1549.2
318.82 K, 75990 kPa	1603.4
318.82 K, 101330 kPa	1684.9
318.83 K, 15200 kPa	1357.8
318.83 K, 91180 kPa	1653.7
318.84 K, 30390 kPa	1427.8

Conditions	mass density [kg/m3]
293.15 K	825.048
298.15 K	821.636
303.15 K	818.173
308.15 K	814.675
313.15 K	811.171
318.15 K	807.654

CCCCCCCCCCO [decan-1-ol]
Conditions	speed of sound [m/s]
292.86 K, 60790 kPa	1646.3
292.9 K, 30390 kPa	1533.8
292.91 K, 15200 kPa	1470.6
292.96 K, 45590 kPa	1592
293.1 K, 100 kPa	1397.2
297.95 K, 15200 kPa	1453.8
297.95 K, 66240 kPa	1649.8
297.96 K, 30390 kPa	1518
297.96 K, 60790 kPa	1631.4
297.96 K, 69300 kPa	1660
297.98 K, 45590 kPa	1576.8
297.99 K, 71850 kPa	1668.2
297.99 K, 73520 kPa	1673.6
297.99 K, 74700 kPa	1677.6
298 K, 75990 kPa	1681.7
298.07 K, 100 kPa	1380
302.92 K, 15200 kPa	1436.8
303.02 K, 60790 kPa	1617
303.03 K, 66240 kPa	1635.7
303.03 K, 71560 kPa	1653.5
303.04 K, 100 kPa	1362.8
303.04 K, 73600 kPa	1660.2
303.05 K, 69230 kPa	1645.7
303.08 K, 30390 kPa	1501.5
303.09 K, 75990 kPa	1667.8
303.11 K, 45590 kPa	1561
303.15 K, 74790 kPa	1664.1
307.92 K, 75990 kPa	1655.1
307.93 K, 74720 kPa	1650.9
307.94 K, 73310 kPa	1646.2
307.95 K, 65860 kPa	1620.9
307.96 K, 60790 kPa	1603.1
307.96 K, 68850 kPa	1631.3
307.96 K, 71380 kPa	1639.8
307.97 K, 30390 kPa	1486.6
307.98 K, 45590 kPa	1546.9
308.04 K, 100 kPa	1345.8
308.09 K, 15200 kPa	1420
313 K, 60790 kPa	1589.4
313 K, 65980 kPa	1607.8
313 K, 69200 kPa	1618.9
313.01 K, 100 kPa	1329
313.01 K, 45590 kPa	1532.5
313.03 K, 30390 kPa	1471.9
313.03 K, 72900 kPa	1631.5
313.04 K, 75990 kPa	1641.7
313.06 K, 15200 kPa	1404.5
318.18 K, 100 kPa	1311.7
318.36 K, 15200 kPa	1387.7
318.4 K, 65950 kPa	1593.7
318.41 K, 60790 kPa	1575.1
318.43 K, 72660 kPa	1617
318.43 K, 73870 kPa	1621.1
318.43 K, 75990 kPa	1628.2
318.44 K, 30390 kPa	1456
318.44 K, 45590 kPa	1517.7
318.45 K, 30390 kPa	1455.9

Conditions	mass density [kg/m3]
293.15 K	829.758
298.15 K	826.37
303.15 K	822.95
308.15 K	819.57
313.15 K	816.12
318.15 K	812.634

CCCCCCCCCO [nonan-1-ol]
Conditions	speed of sound [m/s]
292.86 K, 45590 kPa	1579.5
292.86 K, 91180 kPa	1731.8
292.86 K, 101320 kPa	1762
292.87 K, 15200 kPa	1456.7
292.87 K, 30390 kPa	1520.8
292.87 K, 60790 kPa	1634
292.87 K, 75990 kPa	1684.4
292.88 K, 100 kPa	1382.8
297.95 K, 60790 kPa	1620
297.95 K, 91180 kPa	1718.7
297.95 K, 101320 kPa	1749.2
297.96 K, 15200 kPa	1440.2
297.96 K, 30390 kPa	1505.4
297.96 K, 45590 kPa	1564.5
297.96 K, 75990 kPa	1670.7
298.18 K, 100 kPa	1364.6
302.93 K, 45590 kPa	1550.1
302.93 K, 60790 kPa	1606
302.93 K, 75990 kPa	1657.6
302.93 K, 91180 kPa	1705.8
302.93 K, 101320 kPa	1736.7
302.94 K, 15200 kPa	1424.3
302.94 K, 30390 kPa	1490.2
303.16 K, 100 kPa	1347.5
307.91 K, 30390 kPa	1475.5
307.91 K, 45590 kPa	1536
307.91 K, 60790 kPa	1592.4
307.92 K, 15200 kPa	1408.5
307.92 K, 75990 kPa	1644.7
307.92 K, 91180 kPa	1693.2
307.92 K, 101320 kPa	1724.3
308.14 K, 100 kPa	1330.6
312.91 K, 15200 kPa	1392.8
312.91 K, 30390 kPa	1460.8
312.91 K, 45590 kPa	1522.2
312.91 K, 60790 kPa	1578.9
312.91 K, 75990 kPa	1632
312.91 K, 91180 kPa	1681.1
312.91 K, 101320 kPa	1712.3
313.11 K, 100 kPa	1313.8
318.29 K, 100 kPa	1296.3
318.38 K, 45590 kPa	1507.3
318.38 K, 60790 kPa	1564.6
318.38 K, 75990 kPa	1618.3
318.38 K, 91180 kPa	1667.8
318.38 K, 101320 kPa	1699.1
318.39 K, 15200 kPa	1375.9
318.39 K, 30390 kPa	1444.8
318.39 K, 45590 kPa	1507.3
318.39 K, 91180 kPa	1667.8

Conditions	mass density [kg/m3]
293.15 K	827.66
298.15 K	824.239
303.16 K	820.8
308.15 K	817.345
313.15 K	813.868
318.15 K	810.376
